Laboratory results: patent publication US10144715B2, “Piperazine derivatives as liver X receptor modulators” (priority 2014, dated 2018)
Read-outs that look alike come from different tables or passages of the source.

Columns and labels:
LXR α LBD protein [1] = biological target: T1, LXR α LBD protein (Homo sapiens (Human), UniProt Q13133); test: LXR α radioligand binding assay (SPA, competition with [3H]TO901317); settings: read-out: LXRα Binding Ki
LXR β LBD protein [2] = biological target: T2, LXR β LBD protein (Homo sapiens (Human), UniProt P55055); test: biochemical; type: binding; settings: read-out: LXRβ Binding Ki
Target sequence in this assay (P55055 222-460 limits assumed): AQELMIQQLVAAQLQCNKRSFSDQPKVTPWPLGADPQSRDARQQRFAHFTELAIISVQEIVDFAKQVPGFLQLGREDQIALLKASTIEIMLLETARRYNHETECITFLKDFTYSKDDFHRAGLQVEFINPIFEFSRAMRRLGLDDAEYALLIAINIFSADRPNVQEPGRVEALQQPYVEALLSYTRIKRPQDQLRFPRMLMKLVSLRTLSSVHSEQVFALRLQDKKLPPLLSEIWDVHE

[3] = biological target: Gal4 DNA binding domain fused to the LBD of LXRα in HEK293 cells (Homo sapiens (Human), UniProt Q13133); test: LXR luciferase transcriptional reporter gene assay, agonist mode, LXRα; type: cell-based
[4] = biological target: Gal4 DNA binding domain fused to the LBD of LXRβ in HEK293 cells (Homo sapiens (Human), UniProt P55055); test: cell-based
LXR α LBD protein [5] = biological target: T1, LXR α LBD protein; test: Human LXRα coactivator recruitment FRET assay, agonist mode; type: biochemical
In short: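 LXRα- or LXRβ-LBD at 10 nM (2×) mixed with compound in DMSO, then fluorescein-SRC2-3 peptide 200 nM and Tb-anti-GST antibody 20 nM (4×) added; 2 h at rt. Time-resolved FRET read, 100 µs delay, 200 µs window; EC50 from four-parameter fit of percent control.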

LXR β LBD protein [6] = biological target: T2, LXR β LBD protein; test: biochemical; type: biochemical
Method: Two μL of the DMSO solutions were transferred to the plate and 38 μL of 10 nM LXRα-LBD or LXRβ-LBD (2×) were added immediately to the wells. The plate was shaken for 5 min at rt on an orbital micro shaker (DPC MicroMix® 5), after which 40 μL of 200 nM fluorescein-SRC2-3 peptide and 20 nM Terbium-anti-GST-antibody (Cat# PV3550, Life Technologies, Grand Island, N.Y.) solution (4×) were added to all. The plate was sealed and shaken for 2 min at rt, and incubated at rt for 2 h without agitation. […] The delay and window times were set at 100 and 200 microseconds, respectively. […] The percent control vs. compound concentration data were fit into a four-parameter model, and EC50 values were calculated from the fit as the concentrations corresponding to the inflection points on the concentration-response curves.
Target sequence in this assay (P55055 222-460): as the sequence (P55055 222-460 limits assumed) above

[7] = Biological Test Example 3, agonist mode
[8] = agonist mode, read-out: FRET LXRβ EC50
[9] = agonist mode, read-out: Cell LXRα EC50
[10] = agonist mode, read-out: Cell LXRβ EC50

T1 sequence (Q13133 209-447): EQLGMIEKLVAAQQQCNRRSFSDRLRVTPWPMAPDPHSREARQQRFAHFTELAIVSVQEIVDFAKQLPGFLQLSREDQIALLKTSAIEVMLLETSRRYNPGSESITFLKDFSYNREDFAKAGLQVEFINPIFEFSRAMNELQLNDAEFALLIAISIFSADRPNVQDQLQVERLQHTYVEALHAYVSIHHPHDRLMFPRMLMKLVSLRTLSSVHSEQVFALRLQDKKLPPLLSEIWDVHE
Chain of Gal4 DNA binding domain fused to the LBD of LXRα in HEK293 cells (Q13133 209-447): as above
Chain of Gal4 DNA binding domain fused to the LBD of LXRβ in HEK293 cells (P55055 222-460 limits assumed): as the sequence (P55055 222-460 limits assumed) above

Row | Compound | Ki (LXR α LBD protein [1]) [µM] | Ki (LXR β LBD protein [2]) [µM] | EC50 ([3]; read-out: Cell LXRα EC50) [µM] | EC50 [4] [µM] | EC50 (LXR β LBD protein [6]; read-out: FRET LXRβ EC50) [µM] | Cell LXRα efficacy [3] | Cell LXRβ efficacy ([4]; agonist mode) | EC50 (LXR α LBD protein [5]; agonist mode) [µM] | FRET LXRα efficacy (LXR α LBD protein [5]; agonist mode) [%] | FRET LXRβ efficacy (LXR β LBD protein [6]; agonist mode) | EC50 [3, 9] [µM] | also measured
1 | CS(=O)(=O)c1cccc(N2CCN(CC3CCCOC3)[C@@H](c3ccccc3)C2)c1 (stereo partly drawn) [51-4, (2S)-4-(3-(methylsulfonyl)phenyl)-2-phenyl-1-((tetrahydro-2H-pyran-3-yl)methyl)piperazine] | > 3.33 | 0.546 | > 20 | > 20 | > 50 | – | – | – | – | – | – | EC50 (LXR α LBD protein [5]; [7]): > 50 µM
2 | CC(C)[C@@H]1CN(c2ccc(F)c(S(C)(=O)=O)c2)CCN1C(=O)OC(C)(C)C [2-1, tert-butyl (R)-4-(4-fluoro-3-(methylsulfonyl)phenyl)-2-isopropylpiperazine-1-carboxylate] | – | 0.209 | 5.25 | 0.684 | – | 5252 (61) % | 684 (36) % | 0.901 | 48 | 74% | – | EC50 (LXR β LBD protein [6]; [8]): 0.056 µM
3 | CS(=O)(=O)c1cccc(N2CCN(c3nccc(C(F)(F)F)n3)[C@H](c3ccc(F)cc3)C2)c1 [8-1, (R)-2-(2-(4-fluorophenyl)-4-(3-(methylsulfonyl)phenyl)piperazin-1-yl)-4-(trifluoromethyl)pyrimidine] | 0.454 | 0.036 | – | 0.493 | 0.062 | 2160 (16) % | 493 (31) % | 0.665 | 41 | 62 (75) % | 2.16 | –
4 | CS(=O)(=O)c1cc(N2CCN(C[C@H]3CC[C@@H](C(F)(F)F)CC3)[C@H](c3ccccc3)C2)ccc1C(N)=O (single isomer, unassigned) [17-38] | 3.13 | 0.753 | 4.83 | – | – | 4828 (13) % | 18% | 3.37 | 34 | 71% | – | EC50 [4, 10]: 1.79 µM; EC50 (LXR β LBD protein [6]; [8]): 0.561 µM
5 | CS(=O)(=O)c1cccc(N2CCN(Cc3ccc(OC(F)F)cc3)[C@@H](c3ccccc3)C2)c1 [46-11, (S)-1-(4-(difluoromethoxy)benzyl)-4-(3-(methylsulfonyl)phenyl)-2-phenylpiperazine] | 3.29 | 0.445 | – | > 20 | 0.6 | 3753 (7) % | – | 17.3 | – | – | – | EC50 [3]: 3.75 µM; FRET LXRα efficacy (LXR α LBD protein [5]): 17300 (33) %; FRET LXRβ efficacy (LXR β LBD protein [6]): 600 (20) %
6 | Cc1ccccc1[C@H]1CN(c2cccc(S(C)(=O)=O)c2)CCN1Cc1ccc(C(F)(F)F)nc1 (single isomer, unassigned) [46-46] | > 3.33 | 1.98 | – | 1.99 | 1.21 | – | 1989 (4) % | 6.69 | 30 | 1214 (51) % | > 20 | –
7 | CS(=O)(=O)c1cccc(N2CCN(C[C@H]3CC[C@@H](C(F)(F)F)CC3)[C@@H](c3ccc(F)cc3)C2)c1 [Cpd No 48-43, (S)-2-(4-fluorophenyl)-4-(3-(methylsulfonyl)phenyl)-1-(((1s,4R)-4-(trifluoromethyl)cyclohexyl)methyl)piperazine] | – | 0.015 | – | 0.047 | 0.027 | 240 (54) % | – | 0.207 | 48 | – | 0.24 | Cell LXRβ efficacy [4]: 47 (32) %; FRET LXRβ efficacy (LXR β LBD protein [6]): 27 (43) %
8 | CS(=O)(=O)c1cc(F)cc(N2CCN(Cc3ccc(C(F)(F)F)nc3)C(c3ccccc3)C2)c1 (centres unmarked) [46-53, 4-(3-fluoro-5-(methylsulfonyl)phenyl)-2-phenyl-1-((6-(trifluoromethyl)pyridin-3-yl)methyl)piperazine] | > 3.33 | 1.52 | – | 3.28 | 0.924 | 11138 (23) % | 3280 (28) % | 2.59 | 46 | – | 11.1 | –
9 | tert-butyl 2-(2-bromophenyl)-4-(3-(methylsulfonyl)phenyl)piperazine-1-carboxylate [1-9] | – | – | > 20 | – | – | – | – | > 50 | – | 32% | – | EC50 [4, 10]: > 20 µM; EC50 (LXR β LBD protein [6]; [8]): 0.564 µM
10 | CS(=O)(=O)c1cccc(N2CCN(Cc3ccc(C(F)(F)F)nc3)[C@@H](c3ccccc3Cl)C2)c1 (single isomer, unassigned) [46-57] | 0.188 | 0.061 | 1.24 | 0.383 | 0.055 | 1244 (42) % | – | 0.499 | 41 | – | – | Cell LXRβ efficacy [4]: 383 (38) %; FRET LXRβ efficacy (LXR β LBD protein [6]): 55 (56) %
11 | CC(C)c1ccc(CN2CCN(c3cccc(S(C)(=O)=O)c3)CC2c2ccccc2)cn1 (centres unmarked) [46-42, 1-((6-isopropylpyridin-3-yl)methyl)-4-(3-(methylsulfonyl)phenyl)-2-phenylpiperazine] | > 3.33 | > 2.5 | – | 5.9 | 1.05 | – | 5895 (9) % | 0.984 | 53 | 1048 (53) % | > 20 | –
12 | CS(=O)(=O)c1cccc(N2CCN(Cc3ccc(C(F)(F)F)c(F)c3)[C@H](c3ccccc3)C2)c1 (single isomer, unassigned) [46-25] | – | – | – | 2.56 | 18 | – | 2557 (13) % | > 50 | – | 17972 (116) % | > 20 | –
13 | tert-butyl 2-methyl-4-(3-(methylsulfonyl)phenyl)-2-phenylpiperazine-1-carboxylate [1-10] | – | – | > 20 | – | – | – | – | 3.53 | 28 | 31% | – | EC50 [4, 10]: > 20 µM; EC50 (LXR β LBD protein [6]; [8]): 0.5 µM
14 | Cc1ccccc1[C@@H]1CN(c2cccc(S(C)(=O)=O)c2)CCN1Cc1ccc(C(F)(F)F)nc1 (single isomer, unassigned) [46-45] | – | – | – | 7.52 | 1.52 | – | 7516 (44) % | 6.57 | 43 | 1524 (74) % | > 20 | –
15 | benzyl 4-(3-(methylsulfonyl)phenyl)-2-phenylpiperazine-1-carboxylate [1-14] | – | – | > 20 | – | – | – | – | 1.54 | 27 | 25% | – | EC50 [4, 10]: > 20 µM
16 | CS(=O)(=O)c1cccc(N2CCN(Cc3ccc(C(F)(F)F)cc3)[C@@H](c3ccccc3)C2)c1 (single isomer, unassigned) [46-15] | – | 0.158 | – | 0.72 | 0.418 | 2993 (28) % | – | 1.52 | 28 | – | 2.99 | Cell LXRβ efficacy [4]: 720 (26) %; FRET LXRβ efficacy (LXR β LBD protein [6]): 418 (45) %
17 | CS(=O)(=O)c1cc(N2CCN(C[C@H]3CC[C@H](C(F)(F)F)CC3)[C@H](c3ccccc3)C2)ccc1C(N)=O (single isomer, unassigned) [17-36] | – | – | > 20 | – | – | – | – | 0.808 | 46 | 79% | – | EC50 [4, 10]: > 20 µM; EC50 (LXR β LBD protein [6]; [8]): 1.18 µM
18 | CS(=O)(=O)c1cccc(N2CCN(Cc3ccc(OC(F)F)cc3)[C@H](c3ccccc3)C2)c1 [46-10, (R)-1-(4-(difluoromethoxy)benzyl)-4-(3-(methylsulfonyl)phenyl)-2-phenylpiperazine] | – | – | – | > 20 | 25 | – | – | 40.7 | – | – | – | EC50 [3]: > 20 µM; FRET LXRα efficacy (LXR α LBD protein [5]): 40680 (55) %; FRET LXRβ efficacy (LXR β LBD protein [6]): 24999 (94) %
19 | CS(=O)(=O)c1cc(N2CCN(C[C@H]3CC[C@H](C(F)(F)F)CC3)[C@H](c3ccccc3)C2)ccc1C#N (single isomer, unassigned) [50-3] | – | – | > 20 | – | – | – | – | – | – | – | – | EC50 ([4]; Biological Test Example 2, agonist mode, read-out: Cell LXRβ EC50): > 20 µM; EC50 (LXR α LBD protein [5]; [7]): 12.9 µM; FRET LXRα efficacy (LXR α LBD protein [5]; [7]): 71%; FRET LXRβ efficacy (LXR β LBD protein [6]; [7]): 52%; EC50 (LXR β LBD protein [6]; Biological Test Example 3, agonist mode, read-out: FRET LXRβ EC50): 1.66 µM
20 | CS(=O)(=O)c1cccc(N2CCN(C[C@@H]3CCN(CC(F)(F)F)C3)[C@H](c3ccccc3)C2)c1 (single isomer, unassigned) [48-62] | – | – | – | 4.68 | – | – | – | – | – | – | – | EC50 ([3]; Biological Test Example 2, agonist mode, read-out: Cell LXRα EC50): > 20 µM; Cell LXRβ efficacy ([4]; Biological Test Example 2, agonist mode): 4682 (8) %; EC50 (LXR α LBD protein [5]; [7]): 9.98 µM; FRET LXRα efficacy (LXR α LBD protein [5]; [7]): 39%; EC50 (LXR β LBD protein [6]): 2.1 µM
